US12448358B2, “Inhibitors of protein arginine deiminase 1 and methods of preparation and use thereof” (University of Massachusetts, priority 2019, dated 2025)
Read-outs that look alike come from different tables or passages of the source.

What was measured:
Type in all cases: biochemical
PAD2 = molecular target: T1, PAD2 (Homo sapiens, UniProt Q9Y2J8); assay: Inactivation kinetics of PAD2 (COLDER citrulline assay); conditions: for Ki: concentration of inhibitor that affords half-maximal inactivation; for Fold PAD selectivity: bracketed value under kinact/KI; for kinact/KI: marks: * nonlinear fit of kobs versus [I], ‡ linear fit, † single kobs
T1 construct: made in house
T1 sequence (Q9Y2J8 whole entry): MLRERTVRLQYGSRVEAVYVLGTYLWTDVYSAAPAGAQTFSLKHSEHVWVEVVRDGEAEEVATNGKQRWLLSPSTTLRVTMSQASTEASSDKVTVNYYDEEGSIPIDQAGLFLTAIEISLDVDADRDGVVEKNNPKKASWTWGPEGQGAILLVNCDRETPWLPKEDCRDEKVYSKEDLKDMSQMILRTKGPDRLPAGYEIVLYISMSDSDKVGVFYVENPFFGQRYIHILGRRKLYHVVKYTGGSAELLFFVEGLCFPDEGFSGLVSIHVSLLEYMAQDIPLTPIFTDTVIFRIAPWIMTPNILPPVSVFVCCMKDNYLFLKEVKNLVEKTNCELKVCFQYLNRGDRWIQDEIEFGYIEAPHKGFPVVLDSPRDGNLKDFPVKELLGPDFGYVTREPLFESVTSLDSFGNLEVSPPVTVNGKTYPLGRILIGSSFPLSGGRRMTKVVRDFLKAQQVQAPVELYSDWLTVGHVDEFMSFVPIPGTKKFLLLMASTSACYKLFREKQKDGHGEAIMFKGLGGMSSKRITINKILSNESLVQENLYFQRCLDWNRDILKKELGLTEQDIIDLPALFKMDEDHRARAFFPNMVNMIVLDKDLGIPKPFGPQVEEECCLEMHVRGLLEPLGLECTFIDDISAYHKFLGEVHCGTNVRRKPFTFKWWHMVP
Method: (§1) Inactivation kinetics. […] After 15 min, reactions were quenched with liquid nitrogen and the production of citrulline was quantified using the COLDER assay. (Kearney, et al. Biochemistry 2005, 44, 10570-10582; Knipp, et al. Anal. Biochem. 2000, 286, 257-264.) The time-dependence of PAD inhibition was fit to the following equation 1, […] (1), using Grafit, version 5.0.11, where v is velocity, ν0 is initial velocity, k (or kobs is the pseudo-first-order rate constant of inactivation, and t is time. Upon reaching saturation, the concentration dependence of kobs was fit to equation 2, kobs=kinact[I]/(KI+[I]), (2), using Grafit, version 5.0.11, where kinact is the maximal rate of inactivation, KI is the concentration of inhibitor that affords half-maximal inactivation, and [I] is the concentration of inhibitor. When kobs with [I] varied linearly, kinact/KI was determined from the slope of the line. All the experiments were performed at least in duplicate.

PAD3 = molecular target: T2, PAD3 (Homo sapiens, UniProt Q9ULW8); assay: Inactivation kinetics of PAD3 (COLDER citrulline assay); conditions: for Fold PAD selectivity: bracketed value under kinact/KI; for kinact/KI: marks: * nonlinear fit of kobs versus [I], ‡ linear fit, † single kobs
T2 construct: made in house
T2 sequence (Q9ULW8 1-664): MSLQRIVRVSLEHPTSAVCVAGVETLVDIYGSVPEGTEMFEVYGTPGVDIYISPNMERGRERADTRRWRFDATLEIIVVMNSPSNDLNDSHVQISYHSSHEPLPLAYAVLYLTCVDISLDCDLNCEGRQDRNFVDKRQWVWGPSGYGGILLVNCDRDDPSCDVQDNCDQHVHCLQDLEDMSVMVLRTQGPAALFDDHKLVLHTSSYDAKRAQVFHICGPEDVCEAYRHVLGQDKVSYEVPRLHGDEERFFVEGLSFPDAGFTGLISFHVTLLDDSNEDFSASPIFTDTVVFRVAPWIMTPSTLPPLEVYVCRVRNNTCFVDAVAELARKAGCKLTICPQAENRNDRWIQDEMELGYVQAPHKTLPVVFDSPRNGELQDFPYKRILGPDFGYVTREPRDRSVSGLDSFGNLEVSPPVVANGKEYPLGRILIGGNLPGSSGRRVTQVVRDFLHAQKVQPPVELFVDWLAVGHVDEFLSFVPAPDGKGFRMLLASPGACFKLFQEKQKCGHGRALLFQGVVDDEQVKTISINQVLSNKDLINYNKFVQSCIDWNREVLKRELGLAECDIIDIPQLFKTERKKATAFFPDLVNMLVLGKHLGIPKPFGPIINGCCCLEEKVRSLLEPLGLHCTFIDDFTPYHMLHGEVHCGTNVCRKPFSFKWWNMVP
Method: as §1

PAD1 = molecular target: T3, PAD1 (Homo sapiens, UniProt Q9ULC6); assay: Inactivation kinetics of PAD1 (COLDER citrulline assay); conditions: for Ki / kinact/KI / kinact / fold less potent than 1 (drop in potency for PAD1): PAD1; for Ki: concentration of inhibitor that affords half-maximal inactivation; for kinact/KI: marks: * nonlinear fit of kobs versus [I], ‡ linear fit, † single kobs; for Fold PAD selectivity: PAD1 over the other PADs, bracketed value under kinact/KI; for fold less potent than 1 (drop in potency for PAD1): relative to parent compound 1
T3 construct: made in house
T3 sequence (Q9ULC6 1-663): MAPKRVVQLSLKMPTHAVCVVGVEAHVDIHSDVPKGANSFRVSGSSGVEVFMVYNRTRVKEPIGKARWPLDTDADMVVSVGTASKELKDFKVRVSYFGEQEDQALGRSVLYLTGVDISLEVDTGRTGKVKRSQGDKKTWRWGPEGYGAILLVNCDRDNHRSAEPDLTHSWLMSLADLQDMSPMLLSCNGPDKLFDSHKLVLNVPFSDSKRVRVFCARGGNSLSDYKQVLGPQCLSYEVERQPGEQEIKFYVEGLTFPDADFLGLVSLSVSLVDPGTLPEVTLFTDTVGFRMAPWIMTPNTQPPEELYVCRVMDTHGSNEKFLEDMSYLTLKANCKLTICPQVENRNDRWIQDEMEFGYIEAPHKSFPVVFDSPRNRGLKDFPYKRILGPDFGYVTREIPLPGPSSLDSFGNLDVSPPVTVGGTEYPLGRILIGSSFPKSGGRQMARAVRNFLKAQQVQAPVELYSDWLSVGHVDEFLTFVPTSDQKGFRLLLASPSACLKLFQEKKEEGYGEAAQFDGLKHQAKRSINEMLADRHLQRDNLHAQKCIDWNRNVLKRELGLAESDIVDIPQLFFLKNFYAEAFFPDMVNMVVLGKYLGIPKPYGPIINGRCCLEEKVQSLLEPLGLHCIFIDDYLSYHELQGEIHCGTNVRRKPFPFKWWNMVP
Method: as §1

PAD4 = molecular target: T4, PAD4 (Homo sapiens, UniProt Q9UM07); assay: Inactivation kinetics of PAD4 (COLDER citrulline assay); conditions: for Fold PAD selectivity: bracketed value under kinact/KI; for kinact/KI: marks: * nonlinear fit of kobs versus [I], ‡ linear fit, † single kobs; for Ki: concentration of inhibitor that affords half-maximal inactivation
T4 construct: made in house
T4 sequence (Q9UM07 whole entry): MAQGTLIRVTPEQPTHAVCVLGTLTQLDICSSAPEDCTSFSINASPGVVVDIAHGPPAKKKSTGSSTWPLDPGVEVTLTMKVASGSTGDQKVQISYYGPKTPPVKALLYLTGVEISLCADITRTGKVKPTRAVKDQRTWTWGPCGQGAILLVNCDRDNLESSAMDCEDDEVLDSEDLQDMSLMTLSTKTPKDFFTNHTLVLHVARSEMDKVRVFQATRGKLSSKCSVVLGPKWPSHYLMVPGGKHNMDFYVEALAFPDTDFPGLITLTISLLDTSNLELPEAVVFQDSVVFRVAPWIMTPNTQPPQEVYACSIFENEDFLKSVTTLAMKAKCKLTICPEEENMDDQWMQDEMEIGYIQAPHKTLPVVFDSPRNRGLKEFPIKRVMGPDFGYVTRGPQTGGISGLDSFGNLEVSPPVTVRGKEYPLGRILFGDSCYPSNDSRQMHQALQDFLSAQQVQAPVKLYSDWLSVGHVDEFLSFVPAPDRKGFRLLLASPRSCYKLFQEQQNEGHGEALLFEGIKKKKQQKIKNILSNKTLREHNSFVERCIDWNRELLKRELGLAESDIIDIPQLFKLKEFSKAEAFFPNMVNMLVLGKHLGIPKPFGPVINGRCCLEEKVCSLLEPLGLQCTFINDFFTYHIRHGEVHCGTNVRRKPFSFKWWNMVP
Method: as §1

[1] = read-out: kinact/KI (converted)

Row | Ki (PAD2) | Fold PAD selectivity (PAD3) | kinact/KI (PAD3; [1]) | Ki (PAD1) | kinact/KI (PAD1; [1]) | Fold PAD selectivity (PAD1) | Fold PAD selectivity (PAD4) | kinact/KI (PAD4; [1]) | Fold PAD selectivity (PAD2) | kinact/KI (PAD2; [1]) | kinact/KI (PAD3) | kinact/KI (PAD1) | kinact/KI (PAD4) | kinact/KI (PAD2) | SMILES | other results
1 | 93.7 µM | – | – | – | – | – | – | – | – | – | – | – | – | – | N=C(CCl)NCCC[C@H](NC(=O)c1cc(I)cc(I)c1O)c1nc2ccccc2[nH]1 [Compound 2] | –
2 | 91.5 µM | – | – | – | – | – | – | – | – | – | – | – | – | – | N=C(CCl)NCCC[C@H](NC(=O)c1cc(Br)cc(Br)c1O)c1nc2ccccc2[nH]1 [Compound 12] | –
3 | – | [4] fold | 9.17 M⁻¹ s⁻¹ | 124 µM | 21.5 M⁻¹ s⁻¹ | 10 fold | [2] fold | 4.83 M⁻¹ s⁻¹ | [1] fold | 2.17 M⁻¹ s⁻¹ | – | – | – | – | N=C(CF)NCCC[C@H](NC(=O)c1cc(Cl)cc(Cl)c1O)c1nc2ccccc2[nH]1 [Compound 13] | kinact (PAD1; read-out: kinact (converted)): 0.00267 s⁻¹; fold less potent than 1 (drop in potency for PAD1) (PAD1): 8 fold
4 | – | [2] fold | – | – | – | [2] fold | [1] fold | – | [1] fold | – | 5500 ± 300^‡ M^−1min^−1 | 5300 ± 210^‡ M^−1min^−1 | 2600 ± 70^‡ M^−1min^−1 | 3400 ± 70^‡ M^−1min^−1 | N=C(CCl)NCCC[C@H](NC(=O)c1cc(Cl)cc(Cl)c1O)c1nc2ccccc2[nH]1 [Compound 14] | –
5 | – | [3] fold | – | – | – | [2] fold | [2] fold | – | [1] fold | – | 5000 ± 280^‡ M^−1min^−1 | 3900 ± 100^‡ M^−1min^−1 | 3600 ± 70^‡ M^−1min^−1 | 1700 ± 70^‡ M^−1min^−1 | N=C(CCl)NCCC[C@H](NC(=O)c1cc(I)ccc1O)c1nc2ccccc2[nH]1 [Compound 16] | –
6 | – | [1] fold | – | – | – | [4] fold | [3] fold | – | [2] fold | – | 1170 ± 40^† M^−1min^−1 | 4100 ± 300^‡ M^−1min^−1 | 3160 ± 550^† M^−1min^−1 | 2210 ± 270^† M^−1min^−1 | N=C(CCl)NCCC[C@H](NC(=O)c1cccc(I)c1O)c1nc2ccccc2[nH]1 [Compound 18] | –
7 | 17.5 µM | – | – | – | – | – | – | – | – | – | – | – | – | – | N=C(CCl)NCCC[C@H](NC(=O)c1cc(I)c(F)c(I)c1O)c1nc2ccccc2[nH]1 [Compound 20] | –

Further lines, the molecule ahead of its results:

Row | SMILES | Ki (PAD2) | Fold PAD selectivity (PAD3) | kinact/KI (PAD3; [1]) | Ki (PAD1) | kinact/KI (PAD1; [1]) | Fold PAD selectivity (PAD1) | Fold PAD selectivity (PAD4) | kinact/KI (PAD4; [1]) | Fold PAD selectivity (PAD2) | kinact/KI (PAD2; [1]) | kinact/KI (PAD3) | kinact/KI (PAD1) | kinact/KI (PAD4) | kinact/KI (PAD2) | other results
8 | COc1c(I)cc(I)cc1C(=O)NC(CCCNC(=N)CF)c1nc2ccccc2[nH]1 (stereo not shown) [Compound 3] | – | [3] fold | 36 M⁻¹ s⁻¹ | 44.3 µM | 97.8 M⁻¹ s⁻¹ | [8] fold | [1] fold | 12.5 M⁻¹ s⁻¹ | [2] fold | 27.5 M⁻¹ s⁻¹ | – | – | – | – | kinact (PAD1; read-out: kinact (converted)): 0.00433 s⁻¹
9 | COc1c(I)cc(I)cc1C(=O)N[C@@H](CCCNC(=N)CCl)c1nc2ccccc2[nH]1 [Compound 4] | 208 µM | – | – | – | – | – | – | – | – | – | – | – | – | – | –
10 | N=C(CF)NCCC[C@H](NC(=O)c1cc(I)cc(I)c1)c1nc2ccccc2[nH]1 [Compound 5] | – | [3] fold | 41.2 M⁻¹ s⁻¹ | 30.2 µM | 121 M⁻¹ s⁻¹ | [9] fold | [1] fold | 17.8 M⁻¹ s⁻¹ | [1] fold | 12.8 M⁻¹ s⁻¹ | – | – | – | – | kinact (PAD1; read-out: kinact (converted)): 0.00367 s⁻¹
11 | N=C(CCl)NCCC[C@H](NC(=O)c1ccccc1O)c1nc2ccccc2[nH]1 [Compound 8] | – | [18] fold | 176 M⁻¹ s⁻¹ | – | 10 M⁻¹ s⁻¹ | [1] fold | [68] fold | 684 M⁻¹ s⁻¹ | [5] fold | 46.7 M⁻¹ s⁻¹ | – | – | – | – | Ki (PAD4): 25.1 µM; kinact (PAD4; read-out: kinact (converted)): 0.0172 s⁻¹
12 | CC(C)c1cc(C(=O)N[C@@H](CCCNC(=N)CF)c2nc3ccccc3[nH]2)c(O)c(C(C)C)c1 [Compound 9] | – | [3] fold | – | – | – | [1] fold | [1] fold | – | [2] fold | – | 580 ± 120^† M^−1min^−1 | 190 ± 20^† M^−1min^−1 | 240 ± 20^† M^−1min^−1 | 400 ± 30^† M^−1min^−1 | –
13 | CC(C)c1cc(C(=O)N[C@@H](CCCNC(=N)CCl)c2nc3ccccc3[nH]2)c(O)c(C(C)C)c1 [Compound 10] | 131 µM | – | – | – | – | – | – | – | – | – | – | – | – | – | –
14 | N=C(CF)NCCC[C@H](NC(=O)c1cc(Br)cc(Br)c1O)c1nc2ccccc2[nH]1 [Compound 11] | – | [3] fold | 7 M⁻¹ s⁻¹ | 54.8 µM | 54.7 M⁻¹ s⁻¹ | 25 fold | [2] fold | 4.17 M⁻¹ s⁻¹ | [1] fold | 2.17 M⁻¹ s⁻¹ | – | – | – | – | kinact (PAD1; read-out: kinact (converted)): 0.003 s⁻¹; fold less potent than 1 (drop in potency for PAD1) (PAD1): 3 fold
15 | N=C(CF)NCCC[C@H](NC(=O)c1cc(I)ccc1O)c1nc2ccccc2[nH]1 [Compound 15] | – | [4] fold | 8.33 M⁻¹ s⁻¹ | 46.7 µM | 25 M⁻¹ s⁻¹ | 13 fold | [5] fold | 10.7 M⁻¹ s⁻¹ | [1] fold | 2 M⁻¹ s⁻¹ | – | – | – | – | kinact (PAD1; read-out: kinact (converted)): 0.00117 s⁻¹; fold less potent than 1 (drop in potency for PAD1) (PAD1): 7 fold
16 | N=C(CF)NCCC[C@H](NC(=O)c1cccc(I)c1O)c1nc2ccccc2[nH]1 [Compound 17] | – | [2] fold | – | – | – | 3 fold | [2] fold | – | [1] fold | – | 240 ± 30^† M^−1min^−1 | 300 ± 30^† M^−1min^−1 | 180 ± 20^† M^−1min^−1 | 110 ± 10^† M^−1min^−1 | fold less potent than 1 (drop in potency for PAD1) (PAD1): 35 fold
17 | C#Cc1c(I)cc(C(=O)N[C@@H](CCCNC(=N)CCl)c2nc3ccccc3[nH]2)c(O)c1I [Compound 22] | 25.3 µM | [1] fold | – | 35.2 µM | – | – | [3] fold | – | [4] fold | – | 8200 ± 30* M^−1min^−1 | 72160 ± 10970* M^−1min^−1 | 25000 ± 1370* M^−1min^−1 | 31230 ± 1440* M^−1min^−1 | kinact (PAD3): 0.8 min⁻¹; Ki (PAD3; concentration of inhibitor that affords half-maximal inactivation): 97.6 µM; kinact (PAD1): 0.0423 s⁻¹; kinact (PAD4): 0.0128 s⁻¹; Ki (PAD4): 30.8 µM; kinact (PAD2): 0.79 min⁻¹
